# Measured values taken from PubChem BioAssay AID248 (DTP/NCI, 2004).
# “And” between values parts separate entries of the source, which are not always exact repeats. Equal values may be shown once. Inconclusive results and toxic doses are left out.
# Tested on: L1210 leukemia ip in BDF1 mice, survival T/C
# Experiment: NCI In Vivo Anticancer Drug Screen. Data for tumor model L1210 Leukemia (intraperitoneal) in B6D2F1 (BDF1) mice
# Conditions: endpoint: mean survival time, higher = longer survival
# In short: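 In this screen, tumor-bearing mice given compound are compared to those given vehicle, and their survival values are reported as a treated-to-control quotient.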
# [1] = dose: 100.0 mg/kg/injection, schedule: Q01DX009 (ip), vehicle: saline with Tween-80
# [2] = dose: 200.0 mg/kg/injection, schedule: Q01DX009 (ip), vehicle: saline with Tween-80
# [3] = dose: 400.0 mg/kg/injection, schedule: Q01DX009 (ip), vehicle: saline with Tween-80
# [4] = dose: 100.0 mg/kg/injection, schedule: Q01DX009 (ip), vehicle: Klucel (hydroxypropylcellulose) (HPC)
# [5] = dose: 200.0 mg/kg/injection, schedule: Q01DX009 (ip), vehicle: Klucel (hydroxypropylcellulose) (HPC)
# [6] = dose: 400.0 mg/kg/injection, schedule: Q01DX009 (ip), vehicle: Klucel (hydroxypropylcellulose) (HPC)
# [7] = dose: 100.0 mg/kg/injection, schedule: Q01DX001 (ip), vehicle: Klucel (hydroxypropylcellulose) (HPC)
# [8] = dose: 200.0 mg/kg/injection, schedule: Q01DX001 (ip), vehicle: Klucel (hydroxypropylcellulose) (HPC)
# [9] = dose: 100.0 mg/kg/injection, schedule: Q01DX001 (ip), vehicle: saline
# [10] = dose: 200.0 mg/kg/injection, schedule: Q01DX001 (ip), vehicle: saline
# [11] = dose: 400.0 mg/kg/injection, schedule: Q01DX001 (ip), vehicle: saline
# [12] = dose: 25.0 mg/kg/injection, schedule: Q04DX002 (ip), vehicle: saline with Tween-80
# [13] = dose: 50.0 mg/kg/injection, schedule: Q04DX002 (ip), vehicle: saline with Tween-80
# [14] = dose: 100.0 mg/kg/injection, schedule: Q04DX002 (ip), vehicle: saline with Tween-80
# [15] = dose: 100.0 mg/kg/injection, schedule: Q04DX003 (ip), vehicle: saline with Tween-80
# [16] = dose: 200.0 mg/kg/injection, schedule: Q04DX003 (ip), vehicle: saline with Tween-80
# [17] = dose: 400.0 mg/kg/injection, schedule: Q04DX003 (ip), vehicle: saline with Tween-80
# [18] = dose: 400.0 mg/kg/injection, schedule: Q04DX002 (ip), vehicle: saline with Tween-80
compound,measurement,setting,value
O=c1[nH]c2nc(Cl)c(Cl)nc2[nH]1,T/C,"dose: 50.0 mg/kg/injection, schedule: Q01DX009 (ip), vehicle: saline",98 % of control
same,T/C,"dose: 100.0 mg/kg/injection, schedule: Q01DX009 (ip), vehicle: saline",95 % of control and 96 % of control
same,T/C,"dose: 100.0 mg/kg/injection, schedule: Q04DX003 (ip), vehicle: saline",94 % of control
same,T/C,"dose: 200.0 mg/kg/injection, schedule: Q01DX009 (ip), vehicle: saline",108 % of control and 116 % of control
same,T/C,"dose: 200.0 mg/kg/injection, schedule: Q04DX003 (ip), vehicle: saline",105 % of control
same,T/C,"dose: 300.0 mg/kg/injection, schedule: Q01DX009 (ip), vehicle: saline",92 % of control
same,T/C,"dose: 400.0 mg/kg/injection, schedule: Q01DX009 (ip), vehicle: saline",86 % of control
CN(C)/C=C1\NC(=S)NC1=O,T/C,[1],95 % of control
same,T/C,[2],95 % of control
same,T/C,[3],91 % of control
CCOC(=O)N1CCN(P(=O)(c2ccccc2)N2CCN(C(=O)OCC)CC2)CC1,T/C,[4],93 % of control
same,T/C,[5],93 % of control
same,T/C,[6],96 % of control
O=C1NCC2C3CCC(O3)C12 (configuration not stated),T/C,"dose: 50.0 mg/kg/injection, schedule: Q04DX002 (ip), vehicle: saline",101 % of control
same,T/C,"dose: 100.0 mg/kg/injection, schedule: Q04DX002 (ip), vehicle: saline",97 % of control and 103 % of control
same,T/C,"dose: 200.0 mg/kg/injection, schedule: Q04DX002 (ip), vehicle: saline",105 % of control
same,T/C,"dose: 400.0 mg/kg/injection, schedule: Q04DX002 (ip), vehicle: saline",97 % of control and 92 % of control
COc1ccccc1N=Nc1c(O)n(-c2ccccc2OC)c(=S)n(-c2ccccc2)c1=O,T/C,[7],96 % of control
same,T/C,[8],94 % of control
CCCCCCCCC(=O)N(CCCC)CCCC,T/C,"dose: 100.0 mg/kg/injection, schedule: Q01DX009 (ip), vehicle: carboxymethylcellulose (CMC)",97 % of control and 100 % of control
same,T/C,"dose: 100.0 mg/kg/injection, schedule: Q04DX002 (ip), vehicle: carboxymethylcellulose (CMC)",94 % of control
same,T/C,"dose: 200.0 mg/kg/injection, schedule: Q01DX009 (ip), vehicle: carboxymethylcellulose (CMC)",93 % of control and 100 % of control
same,T/C,"dose: 200.0 mg/kg/injection, schedule: Q04DX002 (ip), vehicle: carboxymethylcellulose (CMC)",93 % of control
same,T/C,"dose: 400.0 mg/kg/injection, schedule: Q01DX009 (ip), vehicle: carboxymethylcellulose (CMC)",89 % of control
same,T/C,"dose: 400.0 mg/kg/injection, schedule: Q04DX002 (ip), vehicle: carboxymethylcellulose (CMC)",93 % of control
CCN=C(c1ccc(NC(=O)c2ccc(C(=O)Nc3ccc(C(=NCC)N(CC)C(=O)OC)cc3)cc2)cc1)N(CC)C(=O)OC,T/C,"dose: 1.5 mg/kg/injection, schedule: Q01DX015 (ip), vehicle: methylcellulose (MC)",112 % of control
same,T/C,"dose: 7.5 mg/kg/injection, schedule: Q01DX015 (ip), vehicle: methylcellulose (MC)",167 % of control
CN1CCCC(OC(=O)c2cc3ccccc3s2)C1 (configuration not stated),T/C,"dose: 100.0 mg/kg/injection, schedule: Q01DX001 (ip), vehicle: carboxymethylcellulose (CMC)",101 % of control
same,T/C,"dose: 200.0 mg/kg/injection, schedule: Q01DX001 (ip), vehicle: carboxymethylcellulose (CMC)",106 % of control
same,T/C,"dose: 400.0 mg/kg/injection, schedule: Q01DX001 (ip), vehicle: carboxymethylcellulose (CMC)",98 % of control
CC(=O)C1Cc2ccccc2C1=O (configuration not stated),T/C,"dose: 50.0 mg/kg/injection, schedule: Q01DX001 (ip), vehicle: saline",100 % of control
same,T/C,[9],97 % of control
same,T/C,[10],106 % of control
same,T/C,[11],108 % of control
CC1(C)N=C(N)N=C(N)N1c1cccc(OCCOc2cccc([N+](=O)[O-])c2)c1,T/C,"dose: 5.0 mg/kg/injection, schedule: Q01DX001 (ip), vehicle: saline",105 % of control
same,T/C,"dose: 10.0 mg/kg/injection, schedule: Q01DX001 (ip), vehicle: saline",102 % of control
same,T/C,"dose: 20.0 mg/kg/injection, schedule: Q01DX001 (ip), vehicle: saline",103 % of control
same,T/C,"dose: 40.0 mg/kg/injection, schedule: Q01DX001 (ip), vehicle: saline",100 % of control
same,T/C,"dose: 80.0 mg/kg/injection, schedule: Q01DX001 (ip), vehicle: saline",100 % of control
Cc1ccc(NC(=O)c2ccccc2)cc1,T/C,"dose: 100.0 mg/kg/injection, schedule: Q04DX002 (ip), vehicle: Klucel (hydroxypropylcellulose) (HPC)",95 % of control
same,T/C,"dose: 200.0 mg/kg/injection, schedule: Q04DX002 (ip), vehicle: Klucel (hydroxypropylcellulose) (HPC)",95 % of control
CC(=O)CCCCC(C)=O,T/C,[9],98 % of control
same,T/C,[10],101 % of control
same,T/C,[11],104 % of control
CCOC(=O)c1nc2c(OC)nn(O)cc-2c1Br,T/C,[12],92 % of control
same,T/C,[13],89 % of control
same,T/C,[14],96 % of control
N#CC1(c2ccc3c(c2)OCO3)C(c2ccc3c(c2)OCO3)CC(O)(c2ccccc2)C1C(=O)c1ccccc1 (configuration not stated),T/C,[1],96 % of control
same,T/C,[2],89 % of control
same,T/C,[3],102 % of control
CCCCN1C(=O)c2ccncc2C1=O,T/C,"dose: 100.0 mg/kg/injection, schedule: Q01DX001 (ip), vehicle: saline with Tween-80",95 % of control
same,T/C,[15],98 % of control
same,T/C,"dose: 200.0 mg/kg/injection, schedule: Q01DX001 (ip), vehicle: saline with Tween-80",98 % of control
same,T/C,[16],103 % of control
same,T/C,"dose: 400.0 mg/kg/injection, schedule: Q01DX001 (ip), vehicle: saline with Tween-80",111 % of control
same,T/C,[17],100 % of control
Brc1cccc2nc(/C=C\c3ccccc3)ccc12,T/C,"dose: 100.0 mg/kg/injection, schedule: Q01DX001 (ip), vehicle: other",98 % of control
same,T/C,"dose: 200.0 mg/kg/injection, schedule: Q01DX001 (ip), vehicle: other",95 % of control
same,T/C,"dose: 400.0 mg/kg/injection, schedule: Q01DX001 (ip), vehicle: other",89 % of control
COC(=O)c1ccccc1NC(=O)c1cccc(Cl)c1,T/C,[4],114 % of control
same,T/C,[5],118 % of control
same,T/C,[6],102 % of control
CC(C)(C)C1=CC(=C(Cl)Cl)C=C(C(C)(C)C)C1=O,T/C,"dose: 100.0 mg/kg/injection, schedule: Q04DX003 (ip), vehicle: other",97 % of control
same,T/C,"dose: 200.0 mg/kg/injection, schedule: Q04DX003 (ip), vehicle: other",98 % of control
same,T/C,"dose: 400.0 mg/kg/injection, schedule: Q04DX003 (ip), vehicle: other",93 % of control
CC1(C)c2ccccc2C(=O)/C(=C/c2ccccc2)C1NC1CCCCC1 (configuration not stated),T/C,[7],95 % of control
same,T/C,[4],102 % of control
same,T/C,[8],93 % of control
same,T/C,[5],96 % of control
same,T/C,"dose: 400.0 mg/kg/injection, schedule: Q01DX001 (ip), vehicle: Klucel (hydroxypropylcellulose) (HPC)",92 % of control
same,T/C,[6],106 % of control
CCOC(=O)CCC(C)(C#N)c1ccccc1 (configuration not stated),T/C,[1],104 % of control
same,T/C,[15],108 % of control
same,T/C,[2],98 % of control
same,T/C,[16],99 % of control
same,T/C,[3],97 % of control
same,T/C,[17],106 % of control
CCN(CC)Cc1cc(Nc2ncnc3[nH]c(C)c(C)c23)ccc1O,T/C,"dose: 12.5 mg/kg/injection, schedule: Q04DX002 (ip), vehicle: saline with Tween-80",98 % of control
same,T/C,[12],94 % of control
same,T/C,[13],88 % of control
CCc1cc(/C=C2\C(=O)C=Cc3ccccc32)c(O)s1,T/C,[14],89 % of control
same,T/C,[18],89 % of control
CC1CCC(O)(C(C)(C(=O)O)c2ccccc2)CC1 (configuration not stated),T/C,"dose: 55.0 mg/kg/injection, schedule: Q01DX Z (ip), vehicle: methylcellulose (MC)",96 % of control
same,T/C,"dose: 83.0 mg/kg/injection, schedule: Q01DX Z (ip), vehicle: methylcellulose (MC)",105 % of control
same,T/C,"dose: 125.0 mg/kg/injection, schedule: Q01DX Z (ip), vehicle: methylcellulose (MC)",93 % of control
CCCCCCCCCCCC[N+]1([O-])CCOCC1,T/C,"dose: 200.0 mg/kg/injection, schedule: Q04DX002 (ip), vehicle: saline with Tween-80",94 % of control
same,T/C,[18],102 % of control
